One may read the GI50 as the concentration at which growth is held to half of that of the control.

Structures are written as SMILES.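 Five concentrations, 48 hours, 96-well plates. At the GI50, growth is halved.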 The source made the active and inactive calls. Cut-off read from the data, not from the text of the source: active = GI50 up to about 1.1 µM and inactive = higher. Where only a bound is given, the exact number is not on record here.

The results in this text go back to ChEMBL document CHEMBL1201862, “PubChem BioAssay data set” (2004).

Test systems include PC-3; SNB-75; UO-31; UACC-62; K562; SW-620; NCI-H460; LOX IMVI; SK-MEL-28; SN12C; HOP-92; COLO 205; MOLT-4; DU-145; Hs-578T; RXF 393; MCF7; A549; CCRF-CEM; A498.
Experiment in all cases: DTP human tumour cell line panel, 48 h

For `O=C(Nc1ccc2cc3ccccc3cc2c1)c1cc2c(cc1Cl)Sc1nccn1S2(=O)=O`, the GI50 in the assay with PC-3 is 6.47 µM (inactive); in the assay with SNB-75 it was 13.3 µM (inactive); with UO-31 it was 68.5 µM (inactive); in the assay on UACC-62, 64.9 µM (inactive); in the assay with K562, 10.8 µM (inactive); in the assay on SW-620 it was 13.9 µM (inactive). The GI50 in the assay on NCI-H460 is 28.7 µM (inactive); with LOX IMVI it was 16.8 µM (inactive); in the assay on SK-MEL-28, 19.1 µM (inactive); with SN12C, 60.3 µM (inactive); in the assay on HOP-92 it was 42 µM (inactive); with COLO 205 it was 87.3 µM (inactive). For the same compound, the GI50 with MOLT-4 is 33.4 µM (inactive); with DU-145 it was 20.6 µM (inactive); in the assay on Hs-578T, > 100 µM (inactive); in the assay on RXF 393, 45.6 µM (inactive); with MCF7, > 100 µM (inactive); in the assay on A549, 13.6 µM (inactive).
For the compound `Cc1ccc([C@@H]2[C@@H](C(=O)c3ccccn3)[C@H](c3ccc(C)cc3)C[C@](O)(c3ccccn3)[C@H]2C(=O)c2ccccn2)cc1`, the GI50 was 6.56 µM (inactive) with PC-3; 0.851 µM (active) with CCRF-CEM; 3.33 µM (inactive) in the assay on SNB-75; 2.32 µM (inactive) in the assay with UO-31; 3.16 µM (inactive) in the assay with UACC-62; > 22.6 µM (inactive) in the assay with SW-620. Besides, the GI50 is 2.27 µM (inactive) with NCI-H460; 2.84 µM (inactive) with LOX IMVI; 6.11 µM (inactive) in the assay with SK-MEL-28; 3.18 µM (inactive) with SN12C; 4.61 µM (inactive) in the assay with HOP-92; 5.24 µM (inactive) in the assay on COLO 205. The GI50 with MOLT-4 is 2.07 µM (inactive); in the assay with DU-145, 2.17 µM (inactive); in the assay with Hs-578T it was 26.5 µM (inactive); in the assay on RXF 393, 3.15 µM (inactive); in the assay on MCF7, 4.86 µM (inactive); with A549, 2.77 µM (inactive).
In the case of `CCCn1c(=O)c(N2CCN(c3ccccc3)CC2)nc2sc3ccccc3c21`, the GI50 in the assay with PC-3, in the assay on CCRF-CEM, in the assay on SNB-75, in the assay on UO-31, in the assay with UACC-62 and in the assay with A498 was > 100 µM (inactive) each time. Further, the GI50 with SW-620, in the assay with NCI-H460, in the assay with LOX IMVI, in the assay on SK-MEL-28, in the assay with SN12C and with HOP-92 was > 100 µM (inactive) in each case. The GI50 with COLO 205, with MOLT-4, in the assay on DU-145, in the assay on Hs-578T, with MCF7 and in the assay on A549 was > 100 µM (inactive) in each case.
As for `CC(=O)c1cc(CC2Cc3cc4c(cc3C2=O)CCC4)cc2c1CCC2` (configuration not stated), the GI50 in the assay with PC-3 was 10.1 µM (inactive); in the assay with CCRF-CEM, 24 µM (inactive); in the assay with SNB-75 it was 33.3 µM (inactive); in the assay with UO-31 it was 49.5 µM (inactive); in the assay on UACC-62, > 100 µM (inactive); in the assay on K562, 12.5 µM (inactive). The GI50 with A498 is 84.7 µM (inactive); in the assay with SW-620, 49.5 µM (inactive); in the assay with NCI-H460, 36 µM (inactive); in the assay with LOX IMVI, 24 µM (inactive); in the assay on SK-MEL-28, > 100 µM (inactive); with SN12C it was 47.4 µM (inactive). The GI50 in the assay on COLO 205 is 24.8 µM (inactive); with MOLT-4, 18.5 µM (inactive); in the assay with DU-145, > 100 µM (inactive); in the assay on Hs-578T, 35.5 µM (inactive); in the assay on MCF7, 30.8 µM (inactive); with A549 it was 29.8 µM (inactive).
Turning to `Cc1ccc(/C=C/c2n[nH]c(N/N=C/c3ccc4c(c3)OCO4)nc2=O)cc1`, the GI50 in the assay on PC-3 was 21 µM (inactive); in the assay with CCRF-CEM, 18.7 µM (inactive); in the assay on SNB-75 it was 15 µM (inactive); with UO-31 it was 88.7 µM (inactive); in the assay on K562, 30.1 µM (inactive); in the assay on SW-620, 19.5 µM (inactive). In addition, the GI50 in the assay with NCI-H460 is 24.9 µM (inactive); in the assay on LOX IMVI, 19.6 µM (inactive); in the assay on SK-MEL-28, 16 µM (inactive); with SN12C, 18.5 µM (inactive); in the assay on COLO 205 it was 74.3 µM (inactive); in the assay on MOLT-4 it was 39.9 µM (inactive). The GI50 was 19.4 µM (inactive) with DU-145; 13.6 µM (inactive) in the assay on Hs-578T; 27.2 µM (inactive) with RXF 393; 23.3 µM (inactive) with MCF7; 38.5 µM (inactive) with A549.
Regarding `COc1c2cc([N+](=O)[O-])cc1CN(C(=O)C(F)(F)F)CCOCCN(C(=O)C(F)(F)F)C2`, the GI50 with PC-3 was > 100 µM (inactive); in the assay on CCRF-CEM it was > 100 µM (inactive); with SNB-75, 69.7 µM (inactive); with UO-31, > 100 µM (inactive); with UACC-62, > 100 µM (inactive); in the assay on A498 it was > 100 µM (inactive). For the same compound, the GI50 in the assay with SW-620, with NCI-H460, in the assay with LOX IMVI, with SK-MEL-28, with SN12C and with HOP-92 was > 100 µM (inactive) each time. Also, the GI50 with COLO 205, with MOLT-4, with DU-145, in the assay with Hs-578T, with MCF7 and with A549 was > 100 µM (inactive) throughout.
In the case of `CSC1=N/C(=C\c2ccco2)C(=O)N1CN1CCCCC1`, the GI50 in the assay with PC-3 is > 100 µM (inactive); with SNB-75 it was > 100 µM (inactive); in the assay with UO-31, > 100 µM (inactive); in the assay with UACC-62, 33.1 µM (inactive); with K562, 59.6 µM (inactive); with A498, > 100 µM (inactive). Further, the GI50 with SW-620 is 36.1 µM (inactive); with LOX IMVI, 33.7 µM (inactive); in the assay with SK-MEL-28, > 100 µM (inactive); in the assay with SN12C it was 65.3 µM (inactive); in the assay on HOP-92, 28.4 µM (inactive); with COLO 205, 38.4 µM (inactive). The GI50 in the assay on MOLT-4 is 71.3 µM (inactive); in the assay with DU-145, 81.3 µM (inactive); in the assay with Hs-578T, > 100 µM (inactive); with MCF7 it was 17.3 µM (inactive); in the assay on A549, > 100 µM (inactive).
Consider `CC12OC(=O)[C@@]3(O)CCC4C(C[C@H]5O[C@]56CC=CC(=O)[C@]46C)C45OC[C@H]6C(=O)O[C@@H]1C[C@@]6(C)[C@H](C4=O)C23O5` (some centres not stated), for which the GI50 in the assay with PC-3 is 3.13 µM (inactive); in the assay with CCRF-CEM, 0.233 µM (active); with SNB-75, 6.79 µM (inactive); with UACC-62, 0.971 µM (active); in the assay with K562 it was 0.53 µM (active); with SW-620 it was 0.671 µM (active). The GI50 with NCI-H460 is 1.94 µM (inactive); in the assay on LOX IMVI it was 1.63 µM (inactive); in the assay with SK-MEL-28, 0.394 µM (active); in the assay on SN12C it was 0.953 µM (active); in the assay with HOP-92 it was 2.11 µM (inactive); in the assay on COLO 205, 0.601 µM (active). The GI50 with MOLT-4 was 0.673 µM (active); with DU-145, 2.56 µM (inactive); in the assay with Hs-578T, 5.47 µM (inactive); with RXF 393, 0.39 µM (active); with MCF7, 0.578 µM (active); in the assay with A549 it was 3.83 µM (inactive).
